Assay results published in article PMC12304293, “Combatting virulent gut bacteria by inhibiting the biosynthesis of a two-component lanthipeptide toxin” (Nature Communications, 2025).
Read-outs that look alike come from different tables or passages of the source. Non-standard residues stand in square brackets, D forms with d. Residues, ends and D or L forms follow the SMILES beside them. *: point of attachment. boroGlu = O=C(O)CC[C@H](N*)B(O)O; Abu = CC[C@H](N)C(=O)O

What was measured:
[1] = molecular target: T1, His6-CylA-27-412 (Enterococcus faecalis, UniProt A0A2P6AWB8); test: Analysis of CylA inhibition by LCMS (cleavage of mCylLL and mCylLS); format: biochemical; conditions: 1 µM inhibitor; enzyme 4 nM; substrate 10 µM; 30 min, room temperature
T1 sequence (A0A2P6AWB8 27-412): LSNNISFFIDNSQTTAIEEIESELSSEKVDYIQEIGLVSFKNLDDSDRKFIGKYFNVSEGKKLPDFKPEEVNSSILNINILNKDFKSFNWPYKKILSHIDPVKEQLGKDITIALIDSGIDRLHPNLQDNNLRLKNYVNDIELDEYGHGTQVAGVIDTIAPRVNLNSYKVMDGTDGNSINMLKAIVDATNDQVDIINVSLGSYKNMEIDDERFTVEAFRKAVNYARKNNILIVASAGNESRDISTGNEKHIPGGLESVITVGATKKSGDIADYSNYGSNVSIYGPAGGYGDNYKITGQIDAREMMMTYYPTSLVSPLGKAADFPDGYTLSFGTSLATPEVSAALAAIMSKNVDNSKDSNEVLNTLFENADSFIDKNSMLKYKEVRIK
Method: We expressed CylA in Escherichia coli with an N-terminal His6-tag and without the secretion signal that is present in WT CylA. […] (4 nM) gave partial conversion to the mature core peptide after 30 min at room temperature.
A Peak highlighted in green is the LP and peak highlighted in orange is CylLL”. B Peak highlighted in blue is the LP and peak highlighted in violet is CylLS”. Longer incubation times result in near-complete cleavage of the substrates. Source data are provided as a Source Data file.
His6-CylA-27-412 was added to PBS (pH = 7.4) to achieve a total enzyme concentration of 4 nM then 1 was added to a concentration 1 μM. […] Reactions were allowed to stand for 30 min before quenching through adjustment to 1% formic acid. Reactions were analyzed directly by LCMS using a Jupiter 5 µm C4 300 Å, 50 × 2 mm LC column. The following gradient was used: 98% H2O + 0.1% FA (solvent A)/2% MeCN + 0.1% FA (solvent B) for 2 min then 98:2 to 2:98 solvent A:solvent B over 10 min. Extracted ion chromatograms (EIC) for each species were merged into a single trace. […] CylA was also previously reported to prefer the modified peptides over the linear peptides.

[2] = molecular target: T1, His6-CylA-27-412; test: Co-operative pore formation assay (pyranine liposomes) measuring CylA-catalyzed cytolysin maturation; format: biochemical
From the text: Cytolysin causes hemolysis and lyses a variety of eukaryotic cells[36],[37]. Additionally, CylA aggregates and is thought to associate primarily with the membrane of the producing cell[52],[53]. To mimic the maturation of cytolysin in vitro, an enzyme assay was designed that linked toxin production to the lysis of fluorescently labeled liposomes. […] In this way, pyranine fluorescence was correlated to toxin activation allowing for the determination of EC50 values (Fig. 4B, C).
Fig. 4 In vitro pore formation assay for determining inhibitor effectiveness. A A schematic of the assay showing how pore formation is used as an indicator of toxin maturation. […] Pore formation dissipates a pH gradient between the interior of the liposome and the surrounding buffer increasing pyranine fluorescence. […] The data points from two replicates are shown (n = 2). Source data are provided as a Source Data file.
Pyranine encapsulated liposomes were prepared as described elsewhere. […] To a well in a black 96-well plate (200 µL) was added 90 µL high pH buffer (5 mM MES, 5 mM Tricine, 5 mM NaCl, pH 7.4) containing CylA (4 nM final concentration). After adding inhibitor, the mixture was incubated at room temperature for 10 min then freshly prepared (no more than 2 days old) pyranine encapsulated DOPC liposomes were added such that the total DOPC concentration was 80 µM. […] The resulting curves were max-min normalized yielding the fraction of permeabilized liposomes. […] This experiment was performed in duplicate or triplicate for each inhibitor at each concentration.
Supplementary Figure 3. Measuring CylA-cat alyzed cytolysin maturation using a pyranine pore formation assay. Plots on the left side show the normalized pyranine emission intensity monitored […]
was added 30 min later. Each trace w as collected using a differ ent total co ncentration of inhibitor as indicated in the l egend. Traces are from a single representative tri al. On the right side, the fraction of liposomes permeabilized after 30 min was plotted as a function of total inhibitor concentration. The data were fit to a dose-response function using Origin 7 and the fit curve is depicted by the red line. Errors bars represent the standard of deviation bet ween two replicates (n = 2). Source d ata are pro vided as a Source Data file. […]

[3] = test system: HeLa cells; format: cell-based
Method: Cell culturing and maintenance was performed in Dulbecco’s Modified Eagle Medium (DMEM, Gibco) supplemented with 10% heat inactivated fetal bovine serum (FBS, Gibco). Cells were routinely checked for mycoplasm using mycoplasm specific primers. HeLa cells (ATCC) were seeded in 96 well plates (Nunc) using a seeding density of 5000 cells/well and allowed to adhere for 16 h at 37 °C, 5% CO2. […] Post-treatment, plates were incubated for 72 h at 37 °C, 5% CO2. Subsequently, the growth medium was removed, and the cells were washed once with pre-warmed phosphate buffered saline (PBS; pH = 7.2). Next, 50 µL of DMEM-FBS media containing 1 mg/mL of 3-(4,5-dimethylthiazol-2-yl)-2,5-diphenyltetrazolium bromide (MTT) was added to the cells and the cells were incubated in the dark at 37 °C, 5% CO2 for 4 h. During this time, live cells reduced yellow tetrazolium salts to purple formazan crystals through NAD(P)H-dependent oxidoreductase activity. After 4 h, the medium was removed carefully and the insoluble formazan crystals were solubilized by incubating with 100 µL of dimethyl sulfoxide (DMSO) in the dark for 1 h with intermittent swirling. Finally, absorbance was recorded at 575 nm (Supplementary Fig. 18). The percentage of cells that survived over the course of the assay was calculated using Eq. 1.1 %survival=100%−Absorbanceoftreatedwell−AvgAbsorbanceofnegativecontrolwells/AvgAbsorbanceofpositivecontrol−AvgAbsorbanceofnegativecontrol*100% […]
Supplementary Figure 18.Cytotoxicity assay of boronic acid inhibitors 2 , 3, 5- 9 against HeLa […]
µM or less as determined by an MTT-based assay. Puromycin was used as positive control, while deionized sterile w ater w as used as a n egative con trol. Source data are prov ided as a Source Dat a […]

CC(=O)NCC(=O)N[C@@H](CC(=O)O)C(=O)N[C@H](C(=O)N[C@@H](CCC(N)=O)C(=O)N[C@@H](C)C(=O)N[C@@H](CCC(=O)O)B(O)O)C(C)C [Compound 1] (Ac-GDVQA-boroGlu)
His6-CylA-27-412-catalyzed cleavage of mCylLS and mCylLL [1]: completely blocked

CC[C@H](NC(=O)[C@H](CCC(N)=O)NC(=O)[C@@H](NC(=O)[C@H](CC(=O)O)NC(=O)CNC(C)=O)C(C)C)C(=O)N[C@@H](CCC(=O)O)B(O)O [Compound 6] (Ac-GDVQ[Abu]-boroGlu)
EC50 [2]: 70 ± 11 nM | increase in EC50 relative to 1 ([2]; pore formation assay): ~ 2 fold

CC(=O)N[C@@H](CO)C(=O)N[C@@H](CC(=O)O)C(=O)N[C@H](C(=O)N[C@@H](CCC(N)=O)C(=O)N[C@@H](C)C(=O)N[C@@H](CCC(=O)O)B(O)O)C(C)C [Compound 8] (Ac-SDVQA-boroGlu)
EC50 [2]: 40 ± 3 nM

COc1ccc(C[C@H](N)C(=O)N[C@H]2[C@@H](O)[C@H](n3cnc4c(N(C)C)ncnc43)O[C@@H]2CO)cc1 [puromycin]
% survival ([3]; additive concentration 1.6 (unit not given)): 5.522% | % survival ([3]; additive concentration 3.1 (unit not given)): 4.2% | % survival ([3]; additive concentration 6.3 (unit not given)): 4.093% | % survival ([3]; additive concentration 13 (unit not given)): 3.889% | % survival ([3]; additive concentration 25 (unit not given)): 3.867% | % survival ([3]; additive concentration 50 (unit not given)): 3.889% | % survival ([3]; additive concentration 100 (unit not given)): 3.867%
